Measured values reported in PubChem BioAssay (NCI).
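Grown in 96-well plates, cells were treated for 48 hours with each compound at five concentrations. Insufficient inhibition: endpoint recorded as highest concentration tested. GI50 is the concentration that inhibits growth by half. TGI: total growth inhibition.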

Assays:
Experiment in all cases: NCI anticancer screen, dose series, 48 h
[1] = system: SK-OV-3 ovarian
[2] = system: MDA-N
[3] = system: COLO 205 colon
[4] = system: NCI-H23 lung
[5] = system: HL-60(TB) leukemia
[6] = system: PC-3 prostate
[7] = system: OVCAR-3 ovarian
[8] = system: RPMI-8226 leukemia
[9] = system: A498 renal
[10] = system: NCI-H226 lung
[11] = system: CCRF-CEM leukemia
[12] = system: KM12 colon
[13] = system: K-562 leukemia
[14] = system: SNB-75 CNS
[15] = system: SW-620 colon
[16] = system: LOX IMVI melanoma
[17] = system: UO-31 renal
[18] = system: DU-145 prostate
[19] = system: EKVX NSCLC
[20] = system: OVCAR-4 ovarian
[21] = system: MDA-MB-231 breast
[22] = system: HS 578T breast
[23] = system: T-47D breast
[24] = system: NCI-H460 lung
[25] = system: 786-0 renal
[26] = system: SF-295 CNS
[27] = system: SNB-19 CNS
[28] = system: HCT-116 colon
[29] = system: OVCAR-8 ovarian
[30] = system: U251 CNS
[31] = system: NCI-H522 lung
[32] = system: MDA-MB-435
[33] = system: HCT-15 colon
[34] = system: MOLT-4 leukemia
[35] = system: A549 NSCLC
[36] = system: SK-MEL-28 melanoma
[37] = system: IGROV1 ovarian
[38] = system: SN12C renal
[39] = system: M14 melanoma
[40] = system: ACHN renal
[41] = system: SR leukemia
[42] = system: OVCAR-5 ovarian
[43] = system: MCF7 breast
[44] = system: NCI/ADR-RES ovarian
[45] = system: TK-10 renal
[46] = system: HCC-2998 colon
[47] = system: HOP-62 NSCLC
[48] = system: SF-268 CNS
[49] = system: SF-539 CNS
[50] = system: UACC-257 melanoma
[51] = system: SK-MEL-5 melanoma
[52] = system: SK-MEL-2 melanoma
[53] = system: HOP-92 NSCLC
[54] = system: MALME-3M melanoma
[55] = system: UACC-62 melanoma
[56] = system: RXF 393 renal
[57] = system: BT-549 breast
[58] = system: HT29 colon
[59] = system: CAKI-1 renal

## CN(C)CCOc1ccc2[nH]c(C(=O)N3CC(CCl)c4c3cc([N+](=O)[O-])c3ccccc43)cc2c1 (stereo not given)
[1]
  TGI: 85.5 µM
[2]
  TGI: 48.5 µM
[3]
  TGI: > 100 µM
[4]
  TGI: > 100 µM
[5]
  TGI: > 100 µM
[6]
  TGI: > 100 µM
[7]
  TGI: 3.68 µM
[8]
  TGI: > 100 µM
[9]
  TGI: 24.5 µM
[10]
  TGI: > 100 µM
[11]
  TGI: > 100 µM
[12]
  TGI: 3.2 µM
[13]
  TGI: > 100 µM
[14]
  TGI: 3.77 µM
[15]
  TGI: > 100 µM
[16]
  TGI: > 100 µM
[17]
  TGI: > 100 µM
[18]
  TGI: 20.2 µM

## O=c1c2ccccc2nc2n1CCc1c-2[nH]c2cc3c(cc12)OCO3
[19]
  TGI: > 25 µM
[20]
  GI50: 1.5 µM
  TGI: 6.35 µM
[21]
  TGI: > 25 µM
[22]
  GI50: 5.05 µM
  TGI: 17.5 µM
[1]
  TGI: > 25 µM
[2]
  TGI: > 25 µM
[3]
  TGI: > 25 µM
[23]
  TGI: > 25 µM
[24]
  GI50: 1.55 µM
  TGI: > 25 µM
[25]
  GI50: 1.08 µM
  TGI: 7.69 µM
[26]
  TGI: > 25 µM
[27]
  TGI: 21.9 µM
[5]
  TGI: > 25 µM
[6]
  TGI: > 25 µM
[28]
  TGI: > 25 µM
[8]
  TGI: > 25 µM
[29]
  TGI: > 25 µM
[30]
  TGI: > 25 µM
[31]
  TGI: > 25 µM
[32]
  TGI: > 25 µM
[11]
  GI50: > 25 µM
  TGI: > 25 µM
[33]
  TGI: > 25 µM
[12]
  TGI: > 25 µM
[34]
  TGI: > 25 µM
[35]
  GI50: > 25 µM
  TGI: > 25 µM
[36]
  TGI: > 25 µM
[37]
  TGI: > 25 µM
[38]
  TGI: > 25 µM
[39]
  TGI: > 25 µM
[13]
  TGI: > 25 µM
[40]
  TGI: > 25 µM
[41]
  TGI: > 25 µM
[42]
  TGI: > 25 µM
[43]
  TGI: > 25 µM
[44]
  TGI: > 25 µM
[14]
  TGI: 22 µM
[15]
  TGI: > 25 µM
[45]
  TGI: > 25 µM
[46]
  TGI: > 25 µM
[47]
  TGI: > 25 µM
[17]
  TGI: > 25 µM
[48]
  TGI: > 25 µM
[49]
  TGI: > 25 µM
[50]
  TGI: > 25 µM
[51]
  TGI: > 25 µM

## CC(C)(C)CNCCCNc1ccc(Cl)cc1
[19]
  TGI: > 100 µM
[20]
  TGI: > 100 µM
[21]
  TGI: 82.3 µM
[22]
  TGI: > 100 µM
[1]
  TGI: > 100 µM
[2]
  TGI: > 100 µM
[3]
  TGI: 45.3 µM
[52]
  TGI: > 100 µM
[24]
  TGI: > 100 µM
[25]
  TGI: > 100 µM
[53]
  TGI: 79.4 µM
[26]
  TGI: 69.1 µM
[54]
  TGI: 53.9 µM
[27]
  TGI: > 100 µM
[4]
  TGI: > 100 µM
[55]
  TGI: 33.4 µM
[5]
  TGI: 0.172 µM
[6]
  TGI: > 100 µM
[28]
  TGI: > 100 µM
[8]
  TGI: 55.4 µM
[29]
  TGI: > 100 µM
[30]
  TGI: > 100 µM
[9]
  TGI: 51.5 µM
[56]
  TGI: 74.3 µM
[57]
  TGI: > 100 µM
[31]
  TGI: > 100 µM
[10]
  TGI: 78.7 µM
[32]
  TGI: 68.2 µM
[11]
  TGI: > 100 µM
[33]
  TGI: > 100 µM
[12]
  TGI: > 100 µM
[34]
  TGI: 25.6 µM
[58]
  TGI: 56.5 µM
[35]
  TGI: > 100 µM
[36]
  TGI: 44.3 µM
[37]
  TGI: > 100 µM
[38]
  TGI: > 100 µM
[39]
  TGI: 58.6 µM
[40]
  TGI: > 100 µM
[41]
  TGI: 49.4 µM
[42]
  TGI: > 100 µM
[43]
  TGI: 46 µM
[44]
  TGI: > 100 µM
[15]
  TGI: > 100 µM
[45]
  TGI: 73.9 µM
[16]
  TGI: 46.9 µM
[47]
  TGI: > 100 µM
[17]
  TGI: > 100 µM
[18]
  TGI: > 100 µM
[48]
  TGI: > 100 µM
[49]
  TGI: > 100 µM
[50]
  TGI: 58.1 µM

## CC(C)(Oc1ccc(C(=O)c2ccc(Cl)cc2)cc1Cl)C(=O)N1CCN(CCO)CC1
[19]
  TGI: > 10 µM
[21]
  TGI: > 10 µM
[1]
  TGI: > 10 µM
[2]
  TGI: > 10 µM
[3]
  TGI: > 10 µM
[23]
  TGI: > 10 µM
[59]
  TGI: > 10 µM
[25]
  TGI: > 10 µM
[26]
  TGI: > 10 µM
[54]
  TGI: > 10 µM
[4]
  TGI: > 10 µM
[55]
  TGI: > 10 µM
[5]
  TGI: > 10 µM
[6]
  TGI: > 10 µM
[8]
  TGI: > 10 µM
[29]
  TGI: > 10 µM
[56]
  TGI: > 10 µM
[11]
  TGI: > 10 µM
[33]
  TGI: > 10 µM
[12]
  TGI: > 10 µM
[34]
  TGI: > 10 µM
[58]
  TGI: > 10 µM
[35]
  TGI: > 10 µM
[36]
  TGI: > 10 µM
[37]
  TGI: > 10 µM
[38]
  TGI: > 10 µM
[39]
  TGI: > 10 µM
[13]
  TGI: > 10 µM
[41]
  TGI: > 10 µM
[43]
  TGI: > 10 µM
[14]
  TGI: > 10 µM
[15]
  TGI: > 10 µM
[45]
  TGI: > 10 µM
[16]
  TGI: > 10 µM
[46]
  TGI: > 10 µM
[47]
  TGI: > 10 µM
[18]
  TGI: > 10 µM
[50]
  TGI: > 10 µM
[51]
  TGI: > 10 µM

## COC(C)(C)[C@@H]1CCCN1C1=C(C)C(=O)OC1
[21]
  TGI: > 100 µM
[22]
  TGI: > 100 µM
[1]
  TGI: > 100 µM
[2]
  TGI: > 100 µM
[3]
  TGI: > 100 µM
[52]
  TGI: > 100 µM
[23]
  TGI: > 100 µM
[24]
  TGI: > 100 µM
[59]
  TGI: > 100 µM
[25]
  TGI: > 100 µM
[26]
  TGI: > 100 µM
[54]
  TGI: > 100 µM
[27]
  TGI: > 100 µM
[4]
  TGI: > 100 µM
[55]
  TGI: > 100 µM
[5]
  TGI: > 100 µM
[6]
  TGI: > 100 µM
[28]
  TGI: > 100 µM
[8]
  TGI: > 100 µM
[30]
  TGI: > 100 µM
[56]
  TGI: > 100 µM
[11]
  TGI: > 100 µM
[33]
  TGI: > 100 µM
[34]
  TGI: > 100 µM
[37]
  TGI: > 100 µM
[38]
  TGI: > 100 µM
[13]
  TGI: > 100 µM
[40]
  TGI: > 100 µM
[41]
  TGI: > 100 µM
[42]
  TGI: > 100 µM
[43]
  TGI: > 100 µM
[44]
  TGI: > 100 µM
[16]
  TGI: > 100 µM
[46]
  TGI: > 100 µM
[47]
  TGI: > 100 µM
[17]
  TGI: > 100 µM
[18]
  TGI: > 100 µM
[48]
  TGI: > 100 µM
[49]
  TGI: > 100 µM
[51]
  TGI: > 100 µM
